Experimental data from patent publication US20170190671A1, “BIS(ARYL)CATECHOL DERIVATIVES AS HERBICIDES” (E I DU PONT DE NEMOURS AND COMPANY, priority 2014, published 2017).

What was measured:
Assay type in all cases: in vivo
[1] = tested on: barnyardgrass (Echinochloa crus-galli); assay: Test B flooded paddy; settings: Echinochloa crus-galli, 336 h; 250 g ai/ha, Flood, 13 to 15 days, scale 0 (no effect) to 100 (complete control); read-out: Plant response rating, Barnyardgrass
Summary of the method: (§1)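 Under a constant 3 cm flood, test compounds went directly into the paddy water. Following 13 to 15 days of greenhouse growth, treated species and controls were compared by eye.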

[2] = tested on: ducksalad (Heteranthera limosa); assay: Test B flooded paddy; settings: Heteranthera limosa, 336 h; 250 g ai/ha, Flood, 13 to 15 days, scale 0 (no effect) to 100 (complete control); read-out: Plant response rating, Ducksalad
Summary of the method: as §1

[3] = tested on: rice (Oryza sativa); assay: Test B flooded paddy; settings: Oryza sativa, 336 h; 250 g ai/ha, Flood, 13 to 15 days, scale 0 (no effect) to 100 (complete control); read-out: Plant response rating, Rice
Summary of the method: as §1

[4] = tested on: sedge, umbrella (small-flower umbrella sedge, Cyperus difformis); assay: Test B flooded paddy; settings: Cyperus difformis, 336 h; 250 g ai/ha, Flood, 13 to 15 days, scale 0 (no effect) to 100 (complete control); read-out: Plant response rating, Sedge, Umbrella
Summary of the method: as §1

[5] = tested on: Italian ryegrass (Lolium multiflorum); assay: Test A preemergence; settings: Lolium multiflorum, pre-emergence, 240 h, 0 to 100 scale (0 no effect, 100 complete control), read-out: Ryegrass, Italian plant response rating
Summary of the method: (§2)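 Scoring: eye-based comparison with untreated controls, 0 for no effect through 100 for complete control, at about day 10. Treatments: directed soil spray preemergence; foliar spray postemergence on 2–10 cm plants at the one- to two-leaf stage. Medium: loam soil with sand.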

[6] = tested on: barnyardgrass (Echinochloa crus-galli); assay: Test A preemergence; settings: Echinochloa crus-galli, pre-emergence, 240 h, 0 to 100 scale (0 no effect, 100 complete control), read-out: Barnyardgrass plant response rating
Summary of the method: as §2

[7] = tested on: giant foxtail (Setaria faberii); assay: Test A preemergence; settings: Setaria faberi, pre-emergence, 240 h, 0 to 100 scale (0 no effect, 100 complete control), read-out: Foxtail, Giant plant response rating
Summary of the method: as §2

[8] = tested on: kochia (Kochia scoparia); assay: Test A preemergence; settings: Bassia scoparia, pre-emergence, 240 h, 0 to 100 scale (0 no effect, 100 complete control), read-out: Kochia plant response rating
Summary of the method: as §2

[9] = tested on: pigweed (Amaranthus retroflexus); assay: Test A preemergence; settings: Amaranthus retroflexus, pre-emergence, 240 h, 0 to 100 scale (0 no effect, 100 complete control), read-out: Pigweed plant response rating
Summary of the method: as §2

[10] = tested on: ragweed (common ragweed, Ambrosia elatior); assay: Test A preemergence; settings: Ambrosia artemisiifolia, pre-emergence, 240 h, 0 to 100 scale (0 no effect, 100 complete control), read-out: Ragweed plant response rating
Summary of the method: as §2

[11] = tested on: Italian ryegrass (Lolium multiflorum); assay: Test A postemergence; settings: Lolium multiflorum, post-emergence, 240 h, 0 to 100 scale, read-out: Plant response rating, Ryegrass, Italian
Summary of the method: as §2

[12] = tested on: barnyardgrass (Echinochloa crus-galli); assay: Test A postemergence; settings: Echinochloa crus-galli, post-emergence, 240 h, 0 to 100 scale, read-out: Plant response rating, Barnyardgrass
Summary of the method: as §2

[13] = tested on: blackgrass (Alopecurus myosuroides); assay: Test A postemergence; settings: Alopecurus myosuroides, post-emergence, 240 h, 0 to 100 scale, read-out: Plant response rating, Blackgrass
Summary of the method: as §2

[14] = tested on: corn (Zea mays); assay: Test A postemergence; settings: Zea mays, post-emergence, 240 h, 0 to 100 scale
Summary of the method: as §2

[15] = tested on: galium (catchweed bedstraw, Galium aparine); assay: Test A postemergence; settings: Galium, post-emergence, 240 h, 0 to 100 scale, read-out: Plant response rating, Galium
Summary of the method: as §2

[16] = tested on: giant foxtail (Setaria faberii); assay: Test A postemergence; settings: Setaria faberi, post-emergence, 240 h, 0 to 100 scale, read-out: Plant response rating, Foxtail, Giant
Summary of the method: as §2

[17] = tested on: kochia (Kochia scoparia); assay: Test A postemergence; settings: Bassia scoparia, post-emergence, 240 h, 0 to 100 scale, read-out: Plant response rating, Kochia
Summary of the method: as §2

[18] = tested on: pigweed (Amaranthus retroflexus); assay: Test A postemergence; settings: Amaranthus retroflexus, post-emergence, 240 h, 0 to 100 scale, read-out: Plant response rating, Pigweed
Summary of the method: as §2

[19] = tested on: ragweed (common ragweed, Ambrosia elatior); assay: Test A postemergence; settings: Ambrosia artemisiifolia, post-emergence, 240 h, 0 to 100 scale, read-out: Plant response rating, Ragweed
Summary of the method: as §2

[20] = tested on: wheat (Triticum aestivum); assay: Test A postemergence; settings: Triticum aestivum, post-emergence, 240 h, 0 to 100 scale, read-out: Plant response rating, Wheat
Summary of the method: as §2

FCc1cccc(Oc2ncc(Cl)cn2)c1Oc1ncc(Cl)cn1 [Compound 44]
pest or weed control at 250 g/ha [1]: 40% | pest or weed control at 250 g/ha [2]: 95% | plant injury at 250 g/ha [3]: 40% | pest or weed control at 250 g/ha [4]: 75% | pest or weed control at 31 g/ha ([5]; 31 g ai/ha): 0% | pest or weed control at 125 g/ha ([5]; 125 g ai/ha): 20% | pest or weed control at 31 g/ha ([6]; 31 g ai/ha): 20% | pest or weed control at 125 g/ha ([6]; 125 g ai/ha): 100% | pest or weed control at 31 g/ha ([7]; 31 g ai/ha): 90% | pest or weed control at 125 g/ha ([7]; 125 g ai/ha): 100% | pest or weed control at 31 g/ha ([8]; 31 g ai/ha): 60% | pest or weed control at 125 g/ha ([8]; 125 g ai/ha): 100% | pest or weed control at 31 g/ha ([9]; 31 g ai/ha): 100% | pest or weed control at 125 g/ha ([9]; 125 g ai/ha): 100% | pest or weed control at 31 g/ha ([10]; 31 g ai/ha): 0% | pest or weed control at 125 g/ha ([10]; 125 g ai/ha): 40% | pest or weed control at 31 g/ha ([11]; 31 g ai/ha): 20% | pest or weed control at 125 g/ha ([11]; 125 g ai/ha): 30% | pest or weed control at 31 g/ha ([12]; 31 g ai/ha): 20% | pest or weed control at 125 g/ha ([12]; 125 g ai/ha): 90% | pest or weed control at 31 g/ha ([13]; 31 g ai/ha): 40% | pest or weed control at 125 g/ha ([13]; 125 g ai/ha): 80% | Corn plant response rating (crop injury, 0 = no effect, 100 = complete kill) at 31 g/ha ([14]; 31 g ai/ha): 20% | Corn plant response rating (crop injury, 0 = no effect, 100 = complete kill) at 125 g/ha ([14]; 125 g ai/ha): 70% | pest or weed control at 31 g/ha ([15]; 31 g ai/ha): 70% | pest or weed control at 125 g/ha ([15]; 125 g ai/ha): 80% | pest or weed control at 31 g/ha ([16]; 31 g ai/ha): 10% | pest or weed control at 125 g/ha ([16]; 125 g ai/ha): 90% | pest or weed control at 31 g/ha ([17]; 31 g ai/ha): 50% | pest or weed control at 125 g/ha ([17]; 125 g ai/ha): 80% | pest or weed control at 31 g/ha ([18]; 31 g ai/ha): 30% | pest or weed control at 125 g/ha ([18]; 125 g ai/ha): 70% | pest or weed control at 31 g/ha ([19]; 31 g ai/ha): 20% | pest or weed control at 125 g/ha ([19]; 125 g ai/ha): 70% | plant injury at 31 g/ha ([20]; 31 g ai/ha): 20% | plant injury at 125 g/ha ([20]; 125 g ai/ha): 80%
